Earlier results as cited in patent US20220340870A1, “FUNCTIONAL NEUROMODULATORY ASSEMBLOIDS” (The Board of Trustees of the Leland Stanford Junior …, priority 2019, published 2022).

Biological target: Smo (Homo sapiens, UniProt Q99835)
Details: interacting with the Smo heptahelical domain

Chain of Smo (Q99835 28-787): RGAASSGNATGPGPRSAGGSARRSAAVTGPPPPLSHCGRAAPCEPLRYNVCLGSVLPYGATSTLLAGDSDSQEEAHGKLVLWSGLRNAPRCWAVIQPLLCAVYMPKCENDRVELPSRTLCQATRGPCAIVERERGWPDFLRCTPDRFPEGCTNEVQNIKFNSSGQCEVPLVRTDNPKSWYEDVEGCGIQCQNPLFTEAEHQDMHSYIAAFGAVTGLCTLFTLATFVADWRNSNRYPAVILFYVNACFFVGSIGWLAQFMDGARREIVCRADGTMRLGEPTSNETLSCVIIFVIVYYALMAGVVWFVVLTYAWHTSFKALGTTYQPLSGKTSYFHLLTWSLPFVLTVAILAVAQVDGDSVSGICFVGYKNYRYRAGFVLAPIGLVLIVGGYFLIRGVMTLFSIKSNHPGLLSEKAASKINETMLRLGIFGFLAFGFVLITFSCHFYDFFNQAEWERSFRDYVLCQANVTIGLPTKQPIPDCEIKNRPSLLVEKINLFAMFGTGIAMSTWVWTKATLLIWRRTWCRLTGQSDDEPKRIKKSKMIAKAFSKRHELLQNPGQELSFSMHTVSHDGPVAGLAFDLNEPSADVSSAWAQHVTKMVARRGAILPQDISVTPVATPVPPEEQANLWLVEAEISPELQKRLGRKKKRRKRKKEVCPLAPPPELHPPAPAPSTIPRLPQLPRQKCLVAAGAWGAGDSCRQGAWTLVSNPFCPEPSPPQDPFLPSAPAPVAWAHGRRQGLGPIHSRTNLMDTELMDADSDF

Kd: 59 nM
SMILES: CNC1CCC(N(Cc2cccc(-c3ccncc3)c2)C(=O)c2sc3ccccc3c2Cl)CC1 (stereo not shown) [SAG]
